Key:
[1] = molecular target: rat adrenal receptor preparations (angiotensin II binding); experiment: inhibition of 125I-angiotensin II binding to rat adrenal receptor preparations; conditions: read-out: IC50 (μM) for inhibition of 125I angiotensin II binding to rat adrenal receptor preparations
[2] = system: 2 kidney, 1-clip Goldblatt hypertensive rat (RHR); experiment: antihypertensive evaluation (AHP3): blood pressure in conscious 2 kidney, 1-clip Goldblatt (renal) hypertensive rats (RHR); format: in vivo; conditions: 30 mg/kg ip in RHR, read-out: Max % decrease in blood pressure
Description: The continuous monitoring of pulsatile blood pressure (BP) from unrestrained conscious rats surgically equipped with polyethylene cannulas was accomplished by means of a computer assisted data capture scheme (CADCS). The basic elements of the methodology are the cannulation procedure and the CADCS.
Cannulas fabricated from polyethylene tubing were inserted into the aorta via an undersized puncture hole below the renal arteries. The puncture hole was made by a 23 G disposable needle with a section of the aorta clamped off above and below the puncture site. The cannulas, consisting of a PE100 (0.86 mm ID) body and a PE50 (0.58 mm ID) tip, were attached to a trocar, inserted through the psoas muscle, and passed subcutaneously along the midline of the back and externalized between the ears. The cannulas were anchored to the psoas muscle and between the scalulae (3-0 green braided suture). […] Each rat was then given penicillin 30,000 units subcutaneously (Penicillin G Procaine Sterile Suspension).
The rats were fitted with a harness-spring-swivel assembly designed to protect the cannula and to provide the rat relative freedom of movement. The harnesses were fabricated from nylon hook and loop tape cemented to a metal plate to which spring wires (18-8 stainless steel), were attached to brass swivels. […]

[3] = system: spontaneously hypertensive rat (SHR); experiment: antihypertensive evaluation (AHP3): blood pressure in conscious spontaneously hypertensive rats (SHR); format: in vivo; conditions: 30 mg/kg PO in SHR, read-out: Max % decrease in blood pressure
Procedure: Thus, for example, compounds of formula I when administered intrapertoneally or orally to 2 kidney, 1-clip Goldblatt (renal) hypertensive rats (See S. Sen, et al., "Role of Renin-Anfgiotensin System in Chronic Renal Hypertensive Rats," Hypertension 1: 427-4343 (1979) and Clin. Soc. 57: 53-62, 1979, "Antihypertensive Effect of Prolonged Blockade of Angiotensin Formation in Benign and Malignant, one- and two-kidney Goldblatt Hypertensive Rats".) at doses in the range of 1-100 mg/kg cause 10-80 mmHg drops in blood pressure. […] Angiotensin binding inhibition activity and blood pressure lowering activity in renal hypertensive rats of the optimally substituted examples of formula I are listed in Table 1. Blood pressure lowering activity in spontaneously hypertensive rats of optimally substituted examples of formula II are listed in Table 2. […]
CADCS: The pulsatile blood pressure of each of 32 rats was monitored continuously by two signal conditioning units (Gould, Cleve., Ohio). The signals from these units were monitored and digital data for mean, systolic, and diastolic blood pressures as well as for heart rate were calculated every 5 min by two in-laboratory computers (Hewlett Packard, Cupertino, Ca.). […]

Compound | IC50 [1] | change in vivo at 30 mg/kg [2] | change in vivo at 30 mg/kg [3]
O=C(O)C1Cc2c(ncn2Cc2ccccc2)CN1C(=O)C1c2ccccc2-c2ccccc21 (racemic) [Example 29, 1H-Imidazo[4,5-c]pyridine-6-carboxylic acid, 5-[(9H-fluoren-9-yl)carbonyl]-4,5,6,7-tetrahydro-1-(phenylmethyl)-, (±)-] | 8 µM | -22% | –
CSc1ccc(N2C(=O)C3Cc4[nH]cnc4CN3C2=O)cc1 (stereo not drawn) [Example 158, 8a,9-Dihydro-7-[4-(methylthio)phenyl]-1H-diimidazo[1,5-a:4',5'-d]pyridine-6,8(4H,7H)-dione] | – | – | -17%
